Test results published in publication PMC7560238, “Development of a Thymoquinone Polymeric Anticancer Nanomedicine through Optimization of Polymer Molecular Weight and Nanoparticle Architecture” (Pharmaceutics, 2020).
Where two headings read alike, the source gives them in different places.

Columns and labels:
MCF-7 = experiment: Antiproliferative activity, SRB assay, MCF-7; type: cell-based, human
Description: (§1) Antiproliferative activity was evaluated in various human cancer cell lines (MCF-7, PANC-1, and Caco-2) as well as a normal cell line (human dermal fibroblasts). All cell lines were obtained from the American Type Culture Collection (ATCC, Manassas, VA, USA). MCF-7, PANC-1, and Caco-2 cells were cultured in high glucose Dulbecco’s modified Eagle medium (DMEM; Eurobio Scientific, Les Ulis, France). Fibroblasts were cultured in Iscove’s modified Dulbecco’s medium (IMDM; Eurobio Scientific, Les Ulis, France). All media were supplemented with 10% fetal bovine serum, 1% L-glutamine, and 1% penicillin/streptomycin. The cell lines were maintained at 37 °C in a 5% CO2 atmosphere with 95% humidity. For the cytotoxicity experiments, cells were cultured in 96-well plates at density of 6 × 10^3 cells per well to ensure exponential growth throughout the experimental period and to ensure a linear relationship between absorbance and cell number when analyzed by the sulforhodamine B (SRB) assay. […] One hundred microliters of 10 mM Tris base solution was then added to each well, and the absorbance was recorded on a microplate reader (BioTek Instruments, Winooski, VT, USA) at 570 nm. Results were expressed as % cell viability compared to the control (untreated cells). […]

PANC-1 = experiment: Antiproliferative activity, SRB assay, PANC-1; type: cell-based, human
Description: as §1

Caco-2 = experiment: Antiproliferative activity, SRB assay, Caco-2; type: cell-based, human
Description: as §1

human dermal fibroblasts = experiment: Antiproliferative activity, SRB assay, normal cell line; type: cell-based; conditions: Fibroblast, 72 h
Description: as §1

[1] = Pilot pharmacokinetic study after oral administration; type: in vivo; conditions: male, Balb/c, mouse, mice, oral gavage, 6 mg/kg TQ, plasma
Description: Thirty male Balb/c mice (8–10 weeks old) were housed in plastic cages in an air-conditioned room with free access to food and water and were fasted overnight prior to the experiment. On the day of the experiment, animals were divided into two groups and each group was administered a single dose of 6 mg/kg TQ either as suspension in ultrapure water or in the form of TQ NPs (F2-NC) via oral gavage. At 1, 2, 4, 6, and 24 h post-administration, three animals from each group were randomly selected and euthanized by diethyl ether, and blood (~1 mL) was collected from the jugular vein into heparinized plastic tubes. Blood samples were left to sit for 45 min at room temperature then centrifuged at 5500 rpm for 30 min at room temperature. Approximately 0.5 mL of plasma was collected into microtubes, and plasma samples were stored at −80 °C until further analysis. The animal protocol for this work was approved by the Animal Care and Use Committee of Al-Zaytoonah University of Jordan (decision no. 1/5/2019–2020). All work was conducted in accordance with the Helsinki guidelines for animal research and all applicable Jordanian governmental rules and guidelines.
The system consisted of a Shimadzu LCMS-8030 quadrupole mass spectrometer (Kyoto, Japan) equipped with an electrospray ionization (ESI) source, and a Shimadzu Prominence 30A Ultra-Fast Liquid Chromatography system composed of a system controller, degasser, binary pump and auto-sampler. Samples were eluted on a C8 column (5 μm, 50 × 2.1 mm) coupled with a guard column (5 μm, 10 × 2.1 mm) at 20 °C. The isocratic mobile phase consisted of acetonitrile (ACN) and 0.2% formic acid (50:50, v/v) at a flow rate of 0.2 mL min^−1 and an injection volume of 20 μL. TQ samples were ionized by the ESI source in negative ion mode ([…] spray voltage). The dwell time was set to 50 ms and the probe temperature was 400 °C. Quantification was performed using multiple reaction monitoring (MRM) of the transitions at m/z 164.0→134.1.
TQ was dissolved in ACN to make a stock solution at 1 mg mL^−1. TQ working standard solutions were prepared by serial dilutions of the stock solution in the mobile phase. Calibration curve samples were prepared by spiking the appropriate TQ working standard solutions into blank plasma obtained from untreated mice to achieve concentrations from 2 to 1000 ng mL^−1.
To 100 μL of plasma (spiked with calibration curve samples or plasma extracted from treated mice), ethyl acetate (1 mL) was added and vortex mixed for 30 s. […] Samples were then injected into the LC-MS/MS system to quantify the plasma concentration of TQ at each time point. […] Plasma t1/2 was determined by fitting the elimination phase of the plots to the first-order model.

[2] = parameters: method as in earlier work; conditions: cirsiliol from a formulation similar to F2-NC, cited from earlier work

With `CC1=CC(=O)C(C(C)C)=CC1=O` [TQ, 2-isopropyl-5-methylbenzo-1,4-quinone] the IC50 (MCF-7; Homo sapiens, MCF7, MCF-7, 72 h, SRB assay) was 20.5 ± 3.7 µM, the “SI (selectivity index)” value (MCF-7; IC50 in fibroblasts divided by IC50 in MCF-7) was 2.9 and the IC50 (PANC-1; Homo sapiens, PANC-1, 72 h, SRB assay) was 8.8 ± 2.2 µM. For the same compound, the “SI (selectivity index)” value (PANC-1; IC50 in fibroblasts divided by IC50 in PANC-1) was 6.7, the IC50 (Caco-2; Homo sapiens, Caco-2, 72 h, SRB assay) was 30.4 ± 0.5 µM and the “SI (selectivity index)” value (Caco-2; IC50 in fibroblasts divided by IC50 in Caco-2) was 1.9. It also gave an IC50 (human dermal fibroblasts) of 58.9 ± 10.3 µM, an AUC(0-inf) [1] of 4670 ± 508 ng·h/mL and a Cmax [1] of 388 ± 41.5 ng/mL. The Tmax [1] was 4 h and the half-life ([1]; elimination phase first-order fit) was 5 h.

For `COc1cc2oc(-c3ccc(O)c(O)c3)cc(=O)c2c(O)c1OC` [cirsiliol], the cumulative release ([2]; after 96 h) is listed as ~ 40% and the cumulative release ([2]; within the first 48 h) is listed as ~ 20%.
